Results reported in US8063094B2, “Anti-cytokine heterocyclic compounds” (Boehringer Ingelheim International GmbH, priority 2007, dated 2011).

- melting point: 266 to 268 °C (dec.)
SMILES: CNCCCc1c(C(=O)O)[nH]c2ccc(C(N)=O)cc12 [Example 13, 5-carboxamide-3-(3-methylaminopropyl)-1H-indole-2-carboxylic acid]
